Experimental data published in patent US20250099448A1, “HETEROCYCLIC COMPOUNDS” (Hoffmann-La Roche Inc., priority 2022, published 2025).

Each compound was assayed against T1, MAGL protein (Homo sapiens, UniProt Q99685) (assay: 2-AG assay: MAGL inhibitory activity by hydrolysis of 2-arachidonoylglycerol to arachidonic acid, followed by mass spectrometry). Conditions: 8 μM 2-arachidonoylglycerol, 15 min preincubation, 30 min reaction at RT, RapidFire MS readout.
T1 sequence (Q99685 1-303): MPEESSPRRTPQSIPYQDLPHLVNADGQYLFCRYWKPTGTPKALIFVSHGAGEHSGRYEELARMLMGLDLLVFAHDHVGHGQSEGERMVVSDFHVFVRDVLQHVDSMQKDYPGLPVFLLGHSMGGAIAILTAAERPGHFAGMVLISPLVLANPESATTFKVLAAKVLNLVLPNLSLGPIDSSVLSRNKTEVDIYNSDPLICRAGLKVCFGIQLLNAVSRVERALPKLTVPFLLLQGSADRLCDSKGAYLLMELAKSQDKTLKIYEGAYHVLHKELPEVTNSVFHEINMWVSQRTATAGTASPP
Assay type: biochemical
How it was run: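 Activity was measured by RapidFire SPE–triple-quad MS as the ratio of arachidonic acid to d8-arachidonic acid after 2-AG hydrolysis (8 μM substrate, 30 min, RT, acetonitrile quench). Compounds, tested from 12.5 μM down to […], were first preincubated 15 min with MAGL in TRIS/EDTA/Tween-20 buffer containing 2.5% DMSO.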

IC50 [nM]	Structure (SMILES)
0.77	Cc1cc(C(C)(C)C)nn1-c1ccc(C2CN(C(=O)N3CC4(CC(c5nc(C6(O)CC6)n[nH]5)C4)C3)C2)cc1 [compound 820]
2	Cc1cc(C2CC2)nn1-c1ccc(C2CN(C(=O)N3CC4(CC(c5nc(C6(O)CC6)n[nH]5)C4)C3)C2)cc1 [compound 821]
0.88	O=C(N1CC2(CC(Cn3ccc(C4CC4)n3)C2)C1)N1CC2(CC(c3nc(C4CC4)n[nH]3)C2)C1 [compound 822]
0.21	Cn1cc(-c2ccc(C3CN(C(=O)N4CC5(CC(c6nc(C7(O)CC7)n[nH]6)C5)C4)C3)cc2)c(C(F)(F)F)n1 [compound 823]
10.3	O=C(N1CC2(CC(Cc3ccc(C(F)(F)F)cn3)C2)C1)N1CC2(CC(c3nc(C4COC4)n[nH]3)C2)C1 [compound 824]
4.37	O=C(N1CC(C23CC(NCC4(C(F)(F)F)CC4)(C2)C3)C1)N1CC2(CC(c3nc(C4(O)CC4)n[nH]3)C2)C1 [compound 825]
0.56	O=C(N1CC2(CC(c3nnc(C4CC4)[nH]3)C2)C1)N1CC2(CC(C(F)(F)c3ccc(C(F)(F)F)nc3)C2)C1 [compound 826]
21.2	CS(=O)(=O)c1cc(C(F)(F)F)ccc1CC1CC2(C1)CN(C(=O)N1CC3(CC(c4nc(C5COC5)n[nH]4)C3)C1)C2 [compound 827]
38.4	O=C(N1CC2(CC(c3ccc(C(F)(F)F)nc3)C2)C1)N1CC2(CC(c3nc(C4(O)CC4)n[nH]3)C2)C1 [compound 829]
36.5	N=S(=O)(c1ccc(CC2CC3(C2)CN(C(=O)N2CC4(CC(c5nc(C6COC6)n[nH]5)C4)C2)C3)cc1)C(F)(F)F (centres unmarked) [compound 830]
1220	O=C(N1CC2(CC(Cc3ccc(Cl)cn3)C2)C1)N1CC2(CC(c3ncn[nH]3)C2)C1 [compound 831]
0.39	N#Cc1cc(CC2CC3(C2)CN(C(=O)N2CC4(CC(c5nnc(C6CC6)[nH]5)C4)C2)C3)cnc1C(F)(F)F [compound 833]
0.06	Cn1cc(-c2ccc(C3CN(C(=O)N4CC5(CC(c6nnc(C7CC7)[nH]6)C5)C4)C3)cc2)c(C(F)(F)F)n1 [compound 834]
2.37	O=C(N1CC2(CC(Cc3ccc(F)cc3F)C2)C1)N1CC2(CC(c3nc(C4COC4)n[nH]3)C2)C1 [compound 835]
102	Cn1ncc(P(C)(C)=O)c1CN1CC2(C1)CN(C(=O)N1CC3(CC(c4nc(C5CC5)n[nH]4)C3)C1)C2 [compound 838]
0.27	O=C(N1CC(c2ccc(-n3nc(C(F)F)cc3C3CC3)cc2)C1)N1CC2(CC(c3nnc(C4CC4)[nH]3)C2)C1 [compound 839]
10.6	Cc1nc(C)n(-c2ccc(C3CN(C(=O)N4CC5(CC(c6nnc(C7CC7)[nH]6)C5)C4)C3)cc2)n1 [compound 841]
1.07	N#Cc1cc(C(F)(F)F)ncc1CC1CC2(C1)CN(C(=O)N1CC3(CC(c4nnc(C5CC5)[nH]4)C3)C1)C2 [compound 843]
0.71	O=C(N1CC2(CC(Cn3ccc(C(F)(F)F)n3)C2)C1)N1CC2(CC(c3nc(C4CC4)n[nH]3)C2)C1 [compound 844]
9.83	O=C(N1CC2(CC(c3nc(C4CC4)n[nH]3)C2)C1)N1CC2(CC(C(F)c3ccc(C(F)(F)F)nc3)C2)C1 (centres unmarked) [compound 845]
0.78	Cc1cc(C2CC2)n(CC2CC3(C2)CN(C(=O)N2CC4(CC(c5nc(C6CC6)n[nH]5)C4)C2)C3)n1 [compound 846]
0.53	Cc1cc(C2CC2)nn1CC1CC2(C1)CN(C(=O)N1CC3(CC(c4nc(C5CC5)n[nH]4)C3)C1)C2 [compound 847]
0.67	N=S(=O)(c1cccc(OC2CC3(C2)CN(C(=O)N2CC4(CC(c5nc(C6CC6)n[nH]5)C4)C2)C3)c1)C(F)(F)F (centres unmarked) [compound 848]
0.07	N=S(=O)(c1ccc(CC2CC3(C2)CN(C(=O)N2CC4(CC(c5nc(C6CC6)n[nH]5)C4)C2)C3)c(F)c1)C(F)(F)F (centres unmarked) [compound 849]

IC50 [nM]	Structure (SMILES)
13.7	O=C(N1CC2(CC(c3nc(C(F)(F)F)n[nH]3)C2)C1)N1CC2(CN(Cc3ccc(S(=O)(=O)C(F)(F)F)cc3)C2)C1 [compound 850]
0.23	O=C(N1CC(c2ccc(-c3cc(C(F)(F)F)n[nH]3)cc2)C1)N1CC2(CC(c3nnc(C4CC4)[nH]3)C2)C1 [compound 851]
0.02	O=C(N1CC2(CC(Cc3ccc(OC(F)(F)F)cc3)C2)C1)N1CC2(CC(c3nc(C4CC4)n[nH]3)C2)C1 [compound 857]
0.19	O=C(N1CC2(CC(Cc3ccc(S(=O)(=O)C4CC4)cc3)C2)C1)N1CC2(CC(c3nc(C4CC4)n[nH]3)C2)C1 [compound 859]
2.9	O=C(N1CC2(CC(Cn3cnc(C4(C(F)(F)F)CC4)c3)C2)C1)N1CC2(CC(c3nc(C4CC4)n[nH]3)C2)C1 [compound 860]
1.57	O=C(N1CC2(CC(Cc3nnc(C4(C(F)(F)F)CC4)o3)C2)C1)N1CC2(CC(c3nnc(C4CC4)[nH]3)C2)C1 [compound 862]
19.1	O=C(N1CC(C23CC(Cc4ccc(C(F)(F)F)nc4)(C2)C3)C1)N1CC2(CC(c3nc(C4CC4)n[nH]3)C2)C1 [compound 866]
0.1	N#Cc1cc(CC2CC3(C2)CN(C(=O)N2CC4(CC(c5nc(C6CC6)n[nH]5)C4)C2)C3)cc(C(F)(F)F)c1 [compound 867]
115	CCc1ccc(C(=O)N2CCN(C(=O)N3CC4(CC(c5nnc(C6CC6)[nH]5)C4)C3)CC2)cc1 [compound 869]
0.67	O=C(N1CC(c2ccc(-n3ccc(C(F)(F)F)n3)cc2)C1)N1CC2(CC(c3nnc(C4CC4)[nH]3)C2)C1 [compound 873]
2.8	Cc1c(C(F)(F)F)n[nH]c1CN1CC2(C1)CN(C(=O)N1CC3(CC(c4nnc(C5CC5)[nH]4)C3)C1)C2 [compound 874]
0.33	O=C(N1CC(c2ccc(-n3nc(C4CC4)cc3C(F)F)cc2)C1)N1CC2(CC(c3nnc(C4CC4)[nH]3)C2)C1 [compound 875]
15.2	Cc1nc(C)c(CN2CC3(C2)CN(C(=O)N2CC4(CC(c5nnc(C6CC6)[nH]5)C4)C2)C3)s1 [compound 877]
1.82	N#Cc1ccc(CN2CC3(C2)CN(C(=O)N2CC4(CC(c5nc(C6CC6)n[nH]5)C4)C2)C3)c(C(F)(F)F)c1 [compound 882]
0.39	Cc1cc(C(F)F)n(CC2CC3(C2)CN(C(=O)N2CC4(CC(c5nc(C6CC6)n[nH]5)C4)C2)C3)n1 [compound 883]
1.47	CP(C)(=O)c1cc(CC2CC3(C2)CN(C(=O)N2CC4(CC(c5nnc(C6CC6)[nH]5)C4)C2)C3)cc(C(F)(F)F)c1 [compound 884]
6.38	CC(C)(C)c1noc(CN2CC3(C2)CN(C(=O)N2CC4(CC(c5nnc(C6CC6)[nH]5)C4)C2)C3)n1 [compound 886]
5.98	O=C(N1CC2(CC(c3nnc(C4CC4)[nH]3)C2)C1)N1CC2(CN(Cc3cnn4ccccc34)C2)C1 [compound 887]
2.85	O=C(N1CC2(CC(c3nnc(C4CC4)[nH]3)C2)C1)N1CC2(CN(Cc3nc(-c4ccccc4)no3)C2)C1 [compound 888]
2.74	CS(=O)(=O)c1cc(C(F)(F)F)ccc1CN1CC2(C1)CN(C(=O)N1CC3(CC(c4nc(C5CC5)n[nH]4)C3)C1)C2 [compound 889]
1.22	CP(C)(=O)c1ccc(CC2CC3(C2)CN(C(=O)N2CC4(CC(c5nnc(C6CC6)[nH]5)C4)C2)C3)c(C(F)(F)F)c1 [compound 890]
77.5	COc1cc(Cl)ccc1CN(C)CC1CN(C(=O)N2CC3(CC(c4nnc(C5CC5)[nH]4)C3)C2)C1 [compound 894]
209	Cc1nc(CN2CC3(C2)CN(C(=O)N2CC4(CC(c5nnc(C6CC6)[nH]5)C4)C2)C3)cs1 [compound 896]
